Source: the NIST ThermoML archive (doi:10.1016/j.fluid.2018.09.026)
Where “and” joins values, the source holds several entries; their conditions need not be identical. Equal values may be shown once. ± gives the expanded uncertainty stated by the source.

Details: Liquid; for mass density: Vibrating tube method; for viscosity: Vibrating wire viscometry

OCCOCCO [diethylene glycol]
Details	mass density	viscosity
323.15 K, 19770 kPa	1103.6 ± 4.4 kg/m3	–
323.15 K, 24680 kPa	1105.8 ± 4.4 kg/m3	–
323.15 K, 29600 kPa	1108 ± 4.5 kg/m3	–
323.15 K, 34530 kPa	1110.1 ± 4.5 kg/m3	–
323.15 K, 39360 kPa	1112.2 ± 4.5 kg/m3	–
323.15 K, 44290 kPa	1114.3 ± 4.5 kg/m3	–
323.15 K, 49260 kPa	1116.3 ± 4.5 kg/m3	–
323.15 K, 54100 kPa	1118.2 ± 4.5 kg/m3	–
323.15 K, 59060 kPa	1120.2 ± 4.5 kg/m3	–
323.15 K, 63880 kPa	1122 ± 4.5 kg/m3	–
323.15 K, 68770 kPa	1123.8 ± 4.5 kg/m3	–
333.15 K, 100 kPa	1087 ± 4.4 kg/m3	–
333.15 K, 660 kPa	1087.3 ± 4.4 kg/m3	–
333.15 K, 1120 kPa	1087.5 ± 4.4 kg/m3	–
333.15 K, 1630 kPa	1087.8 ± 4.4 kg/m3	–
333.15 K, 2100 kPa	1088 ± 4.4 kg/m3	–
333.15 K, 3070 kPa	1088.5 ± 4.4 kg/m3	–
333.15 K, 5060 kPa	1089.5 ± 4.4 kg/m3	–
333.15 K, 7050 kPa	1090.5 ± 4.4 kg/m3	–
333.15 K, 9930 kPa	1091.9 ± 4.4 kg/m3	–
333.15 K, 14780 kPa	1094.3 ± 4.4 kg/m3	–
333.15 K, 19770 kPa	1096.7 ± 4.4 kg/m3	–
333.15 K, 24660 kPa	1099 ± 4.4 kg/m3	–
333.15 K, 29540 kPa	1101.2 ± 4.4 kg/m3	–
333.15 K, 34500 kPa	1103.4 ± 4.4 kg/m3	–
333.15 K, 39330 kPa	1105.5 ± 4.4 kg/m3	–
333.15 K, 44230 kPa	1107.6 ± 4.5 kg/m3	–
333.15 K, 49130 kPa	1109.7 ± 4.5 kg/m3	–
333.15 K, 54060 kPa	1111.7 ± 4.5 kg/m3	–
333.15 K, 59020 kPa	1113.7 ± 4.5 kg/m3	–
333.15 K, 63840 kPa	1115.7 ± 4.5 kg/m3	–
333.15 K, 68830 kPa	1117.5 ± 4.5 kg/m3	–
333.28 K, 210 kPa	–	7.305 ± 0.32 mPa·s [middle of 6 runs]
333.28 K, 1080 kPa	–	7.347 ± 0.3 mPa·s and 7.376 ± 0.3 mPa·s and 7.374 ± 0.3 mPa·s
333.28 K, 2290 kPa	–	7.397 ± 0.3 mPa·s [middle of 6 runs]
333.28 K, 5100 kPa	–	7.491 ± 0.3 mPa·s
333.28 K, 5110 kPa	–	7.506 ± 0.31 mPa·s and 7.492 ± 0.3 mPa·s
333.28 K, 5120 kPa	–	7.53 ± 0.31 mPa·s and 7.547 ± 0.31 mPa·s
333.28 K, 10340 kPa	–	7.758 ± 0.32 mPa·s and 7.739 ± 0.32 mPa·s
333.28 K, 10360 kPa	–	7.749 ± 0.32 mPa·s and 7.734 ± 0.32 mPa·s
333.28 K, 19960 kPa	–	8.178 ± 0.33 mPa·s [middle of 5 runs]
333.28 K, 30150 kPa	–	8.721 ± 0.35 mPa·s and 8.673 ± 0.35 mPa·s
333.28 K, 30160 kPa	–	8.678 ± 0.35 mPa·s and 8.671 ± 0.35 mPa·s
333.28 K, 40000 kPa	–	9.197 ± 0.38 mPa·s
333.28 K, 40010 kPa	–	9.192 ± 0.38 mPa·s and 9.199 ± 0.38 mPa·s and 9.178 ± 0.37 mPa·s
333.28 K, 50250 kPa	–	9.728 ± 0.4 mPa·s and 9.806 ± 0.4 mPa·s
333.28 K, 50260 kPa	–	9.736 ± 0.4 mPa·s
333.28 K, 68880 kPa	–	10.71 ± 0.51 mPa·s
333.28 K, 69100 kPa	–	10.77 ± 0.51 mPa·s
333.28 K, 69180 kPa	–	10.8 ± 0.51 mPa·s
342.75 K, 250 kPa	–	5.567 ± 0.23 mPa·s and 5.585 ± 0.23 mPa·s and 5.609 ± 0.23 mPa·s
342.75 K, 260 kPa	–	5.588 ± 0.23 mPa·s and 5.573 ± 0.23 mPa·s
342.75 K, 1040 kPa	–	5.634 ± 0.23 mPa·s [middle of 5 runs]
342.75 K, 2130 kPa	–	5.655 ± 0.23 mPa·s [middle of 5 runs]
342.75 K, 5010 kPa	–	5.77 ± 0.23 mPa·s
342.75 K, 5020 kPa	–	5.764 ± 0.23 mPa·s and 5.765 ± 0.23 mPa·s
342.75 K, 9990 kPa	–	5.9 ± 0.24 mPa·s and 5.894 ± 0.24 mPa·s and 5.912 ± 0.24 mPa·s
342.75 K, 10000 kPa	–	5.925 ± 0.24 mPa·s
342.75 K, 20270 kPa	–	6.257 ± 0.25 mPa·s and 6.245 ± 0.25 mPa·s
342.75 K, 20280 kPa	–	6.256 ± 0.25 mPa·s and 6.268 ± 0.25 mPa·s
342.75 K, 30150 kPa	–	6.641 ± 0.27 mPa·s [middle of 6 runs]
342.75 K, 39690 kPa	–	6.989 ± 0.28 mPa·s
342.75 K, 39700 kPa	–	6.991 ± 0.28 mPa·s
342.75 K, 39710 kPa	–	6.946 ± 0.28 mPa·s and 6.939 ± 0.28 mPa·s and 6.957 ± 0.28 mPa·s
342.75 K, 50090 kPa	–	7.319 ± 0.3 mPa·s [middle of 6 runs]
342.75 K, 70440 kPa	–	8.133 ± 0.33 mPa·s
342.75 K, 70450 kPa	–	8.148 ± 0.33 mPa·s
342.75 K, 70460 kPa	–	8.145 ± 0.33 mPa·s
342.75 K, 70480 kPa	–	8.152 ± 0.33 mPa·s
342.75 K, 70500 kPa	–	8.131 ± 0.33 mPa·s
342.75 K, 70510 kPa	–	8.177 ± 0.33 mPa·s
343.15 K, 100 kPa	1079.7 ± 4.3 kg/m3	–
343.15 K, 670 kPa	1080 ± 4.3 kg/m3	–
343.15 K, 1100 kPa	1080.2 ± 4.3 kg/m3	–
343.15 K, 1520 kPa	1080.4 ± 4.3 kg/m3	–
343.15 K, 2120 kPa	1080.7 ± 4.3 kg/m3	–
343.15 K, 3060 kPa	1081.2 ± 4.3 kg/m3	–
343.15 K, 5040 kPa	1082.3 ± 4.3 kg/m3	–
343.15 K, 6970 kPa	1083.3 ± 4.3 kg/m3	–
343.15 K, 9950 kPa	1084.8 ± 4.4 kg/m3	–
343.15 K, 14870 kPa	1087.3 ± 4.4 kg/m3	–
343.15 K, 19740 kPa	1089.6 ± 4.4 kg/m3	–
343.15 K, 24710 kPa	1092.1 ± 4.4 kg/m3	–
343.15 K, 29560 kPa	1094.4 ± 4.4 kg/m3	–
343.15 K, 34490 kPa	1096.6 ± 4.4 kg/m3	–
343.15 K, 39350 kPa	1098.8 ± 4.4 kg/m3	–
343.15 K, 44290 kPa	1101 ± 4.4 kg/m3	–
343.15 K, 49180 kPa	1103.1 ± 4.4 kg/m3	–
343.15 K, 54070 kPa	1105.2 ± 4.4 kg/m3	–
343.15 K, 58980 kPa	1107.3 ± 4.5 kg/m3	–
343.15 K, 63910 kPa	1109.3 ± 4.5 kg/m3	–
343.15 K, 68720 kPa	1111.2 ± 4.5 kg/m3	–
353.15 K, 100 kPa	1072.2 ± 4.3 kg/m3	–
353.15 K, 560 kPa	1072.5 ± 4.3 kg/m3	–
353.15 K, 1090 kPa	1072.8 ± 4.3 kg/m3	–
353.15 K, 1550 kPa	1073 ± 4.3 kg/m3	–
353.15 K, 2080 kPa	1073.3 ± 4.3 kg/m3	–
353.15 K, 3040 kPa	1073.8 ± 4.3 kg/m3	–
353.15 K, 5060 kPa	1074.9 ± 4.3 kg/m3	–
353.15 K, 7020 kPa	1076 ± 4.3 kg/m3	–
353.15 K, 9970 kPa	1077.5 ± 4.3 kg/m3	–
353.15 K, 14830 kPa	1080.1 ± 4.3 kg/m3	–
353.15 K, 19740 kPa	1082.6 ± 4.3 kg/m3	–
353.15 K, 24680 kPa	1085.1 ± 4.4 kg/m3	–
353.15 K, 29560 kPa	1087.5 ± 4.4 kg/m3	–
353.15 K, 34550 kPa	1089.8 ± 4.4 kg/m3	–
353.15 K, 39420 kPa	1092.1 ± 4.4 kg/m3	–
353.15 K, 44280 kPa	1094.3 ± 4.4 kg/m3	–
353.15 K, 49230 kPa	1096.5 ± 4.4 kg/m3	–
353.15 K, 54110 kPa	1098.7 ± 4.4 kg/m3	–
353.15 K, 59020 kPa	1100.8 ± 4.4 kg/m3	–
353.15 K, 64010 kPa	1102.9 ± 4.4 kg/m3	–
353.15 K, 68770 kPa	1104.8 ± 4.5 kg/m3	–
362.81 K, 230 kPa	–	3.458 ± 0.14 mPa·s [middle of 4 runs]
362.81 K, 240 kPa	–	3.444 ± 0.14 mPa·s
362.81 K, 1070 kPa	–	3.462 ± 0.14 mPa·s and 3.469 ± 0.14 mPa·s
362.81 K, 2190 kPa	–	3.473 ± 0.14 mPa·s and 3.514 ± 0.14 mPa·s and 3.458 ± 0.14 mPa·s
362.81 K, 5080 kPa	–	3.546 ± 0.14 mPa·s [middle of 5 runs]
362.81 K, 9970 kPa	–	3.652 ± 0.15 mPa·s [middle of 4 runs]
362.81 K, 20040 kPa	–	3.834 ± 0.16 mPa·s
362.81 K, 20050 kPa	–	3.862 ± 0.16 mPa·s and 3.82 ± 0.15 mPa·s and 3.837 ± 0.16 mPa·s
362.81 K, 30200 kPa	–	4.039 ± 0.16 mPa·s
362.81 K, 30210 kPa	–	4.007 ± 0.16 mPa·s
362.81 K, 40240 kPa	–	4.264 ± 0.17 mPa·s and 4.237 ± 0.17 mPa·s
362.81 K, 40250 kPa	–	4.205 ± 0.17 mPa·s and 4.242 ± 0.17 mPa·s
362.81 K, 50100 kPa	–	4.435 ± 0.18 mPa·s
362.81 K, 50110 kPa	–	4.47 ± 0.18 mPa·s and 4.453 ± 0.18 mPa·s
362.81 K, 69940 kPa	–	4.921 ± 0.2 mPa·s
362.81 K, 69950 kPa	–	4.913 ± 0.2 mPa·s
362.81 K, 70000 kPa	–	4.894 ± 0.2 mPa·s
362.81 K, 70020 kPa	–	4.924 ± 0.2 mPa·s
363.08 K, 100 kPa	1064.5 ± 4.3 kg/m3 and 1064.4 ± 4.3 kg/m3	–
363.08 K, 620 kPa	1064.7 ± 4.3 kg/m3	–
363.08 K, 1110 kPa	1065 ± 4.3 kg/m3	–
363.08 K, 1570 kPa	1065.2 ± 4.3 kg/m3	–
363.08 K, 2100 kPa	1065.5 ± 4.3 kg/m3	–
363.08 K, 3020 kPa	1066 ± 4.3 kg/m3	–
363.08 K, 5070 kPa	1067.2 ± 4.3 kg/m3	–
363.08 K, 7000 kPa	1068.3 ± 4.3 kg/m3	–
363.08 K, 9970 kPa	1069.9 ± 4.3 kg/m3	–
363.08 K, 14840 kPa	1072.6 ± 4.3 kg/m3	–
363.08 K, 19750 kPa	1075.1 ± 4.3 kg/m3	–
363.08 K, 24660 kPa	1077.7 ± 4.3 kg/m3	–
363.08 K, 29610 kPa	1080.2 ± 4.3 kg/m3	–
363.08 K, 34480 kPa	1082.6 ± 4.3 kg/m3	–
363.08 K, 39400 kPa	1084.9 ± 4.4 kg/m3	–
363.08 K, 44290 kPa	1087.2 ± 4.4 kg/m3	–
363.08 K, 49160 kPa	1089.5 ± 4.4 kg/m3	–
363.08 K, 54110 kPa	1091.7 ± 4.4 kg/m3	–
363.08 K, 58990 kPa	1093.9 ± 4.4 kg/m3	–
363.08 K, 63880 kPa	1096 ± 4.4 kg/m3	–
363.08 K, 68760 kPa	1098 ± 4.4 kg/m3	–
